For assay [1], the target named is ACAT (Acyl-CoA: cholesterol acyltransferase) enzyme of rabbit liver microsome. The assay is described as follows: Inhibitory effect on ACAT enzyme (No.1), rabbit liver microsome. Particulars: Table 9. The format is biochemical. As for the experimental part: 1) Inhibitory effect on ACAT (Acyl-CoA: cholesterol acyltransferase) enzyme (No.1)
Compounds of the invention were tested for their inhibitory effects on ACAT enzyme of rabbit liver microsome by the method of J. G. Heider (J. of Lipid Res., vol. 24, 1127-1134, 1983). More specifically, the test was done by measuring the amount of labelled cholesterol oleate ester produced from oleic acid CoA (coenzyme A) labelled by radiation.
A general note: Liver microsomes are a subcellular fraction often used to study metabolism.

The subject of assay [2] is serum cholesterol. The assay is described as follows: Serum cholesterol lowering effect in rat having high cholesterol [3-1]. In kind it is in vivo, SD-type (Sprague-Dawley) male rat. Particulars: oral, once a day for 5 days, dissolved in saline, Table 12. The method, then:
3) Cholesterol Lowering Effect
[3-1] Using a rat having high cholesterol, compounds of the invention were tested for their serum cholesterol lowering effects by the following method. A 6-week-old SD-type (Sprague-Dawley) male rat was fed with food containing 1% of cholesterol, 0.5% of cholic acid and 5% of olive oil for 2 days and then orally administered the food and a compound of the invention as dissolved in saline once a day for 5 days starting on day 3. Four hours after the final administration, a blood sample was taken. The total cholesterol in the serum of the test group was measured and compared with that of the control group.

Assay [3] addresses ACAT enzyme of rabbit liver microsomes. The assay is described as follows: Inhibitory effect on ACAT enzyme (No.2), rabbit liver microsomes. In kind it is biochemical. Particulars: pH 7.4, 37° C., 60 minutes, Table 10. The method, then:
(§1) 2) Inhibitory effect on ACAT (Acyl-CoA: cholesterol acyltransferase) enzyme (No.2)
(§2) [2-1] ACAT enzyme activities of rabbit liver and small intestine mucosa microsomes
(§3) A white male rabbit was fed with a […] cholesterol-containing food for four weeks and bleeding-slaughtered to extract its liver and small intestine. Microsomes of the liver and small intestine mucosa were prepared by the method of C. Marco et al. (Biochim. Biophys. Acta, 617, 458-471, 1980).
(§4) ACAT enzyme activities of the microsomes were determined by the method of J. G. Heider (J. Lipid Res., 24, 1127-1134, 1983). A test sample dissolved in 1% dimethylsulfoxide was added to a microsome fraction (100 μg), a phosphoric acid buffer (0.154M) having pH 7.4, 1-^14 C-oleoyl CoA (36 μM), dithiosleitol (2 mM) and bovine blood serum albumin (36 μg/ml). The reaction mixture adjusted to a final capacity of 0.5 ml was incubated at 37° C. for 60 minutes. A mixture (6 ml) of chloroform and methanol (2:1) was added and the reaction was stopped. Cholesterol oleate was extracted with chloroform and separated by thin-layer chromatography. ACAT enzyme activities of the microsome fractions were determined by radiation measurement.

Assay [4] concerns the target T1, ACAT enzyme of rabbit small intestine mucosa microsomes (Oryctolagus cuniculus, UniProt G1SFD9).
T1 construct: Microsomes of the liver and small intestine mucosa were prepared; from tissue; host or cells: small intestine mucosa microsomes of a cholesterol-fed white male rabbit
T1 sequence (G1SFD9 1-524): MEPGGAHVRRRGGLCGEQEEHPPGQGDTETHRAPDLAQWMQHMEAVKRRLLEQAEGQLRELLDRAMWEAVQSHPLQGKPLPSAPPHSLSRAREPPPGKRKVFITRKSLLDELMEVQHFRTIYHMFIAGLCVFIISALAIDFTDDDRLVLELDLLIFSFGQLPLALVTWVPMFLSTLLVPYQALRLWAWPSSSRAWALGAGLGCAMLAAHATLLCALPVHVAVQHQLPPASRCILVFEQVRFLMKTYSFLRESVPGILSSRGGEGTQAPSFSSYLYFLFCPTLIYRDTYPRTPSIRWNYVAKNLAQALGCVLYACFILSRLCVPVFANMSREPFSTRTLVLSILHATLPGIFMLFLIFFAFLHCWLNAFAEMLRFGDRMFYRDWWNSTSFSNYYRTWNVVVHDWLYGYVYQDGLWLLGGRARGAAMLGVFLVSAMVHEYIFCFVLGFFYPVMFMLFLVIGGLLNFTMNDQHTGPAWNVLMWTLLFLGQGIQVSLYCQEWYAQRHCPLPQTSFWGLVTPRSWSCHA
As to the kind of experiment: Inhibitory effect on ACAT enzyme (No.2), rabbit small intestine mucosa microsomes. The format is biochemical. Particulars: pH 7.4, 37° C., 60 minutes, Table 10. The method, then:
as §1, §2, §3, §4

Assay [5] concerns ACAT enzyme of human HepG2 cells. As to the kind of experiment: ACAT enzyme activity of human HepG2 cells (microsome fractions). The format is biochemical. Particulars: Table 11, read-out: IC50, inhibitory effect on ACAT enzyme activity, human HepG2. The method, then:
as §4
(§5) [2-2] ACAT enzyme activities of human HepG2 and CaCo2 cells
(§6) Human HepG2 and CaCo2 cells purchased from ATCC (AMERICAN TYPE CULTURE COLLECTION) were used in this test.
(§7) Using RPMI 1640 medium for HepG2 and DMEM medium for CaCo2, HepG2 and CaCo2 cells were cultured with 40 ml of each medium containing 10% bovine blood serum, 50 I.U. of penicillin and 50 μg/ml of streptomycin in a 5% CO2 incubator at 37° C. The cells were then monolayer-culturedwith 80 ml of each medium containing […] of cholesterol and 5 μg/ml of 25-0H cholesterol in a 175 cm flask for 5 hours. The homogenizes of these cells were subjected to centrifugation at 105,000 g to collect microsome fractions. ACAT enzyme activities of the microsome fractions were determined by the above-mentioned method.

For assay [6], the system named is ACAT enzyme of human CaCo2 cells. As to the kind of experiment: ACAT enzyme activity of human CaCo2 cells (microsome fractions). In kind it is biochemical. Particulars: Table 11, read-out: IC50, inhibitory effect on ACAT enzyme activity, human CaCo2. As for the experimental part:
as §4, §5, §6, §7

Assay [7] concerns serum cholesterol. The assay is described as follows: Serum cholesterol lowering effect in rat having high cholesterol [3-2]. The format is in vivo, SD-type (Sprague-Dawley) male rat. Particulars: oral, once a day for the last 5 days, Tween 80 and saline suspension, Table 13. The method, then: [3-2] Using a rat having high cholesterol, compounds of the invention were tested for their serum cholesterol lowering effects by the following method. A 6-week-old SD-type (Sprague-Dawley) male rat was fed with food containing 1% of cholesterol, 0.5% of cholic acid and 5% of olive oil for 7 days. For the last 5 days, a test sample suspended in some drops of Tween 80 and saline was orally administered once a day. Four hours after the final administration, a blood sample was taken from celiac aorta of the rat under etherization. The total cholesterol in the serum of the test group was measured by the oxygen method and compared with that of the control group.

This note sets out measurements from patent US5733931A, “Cyclohexanediurea derivative and process for its production” (Nissin Food Products Co., Ltd., priority 1993, dated 1998).

One may read the IC50 as the concentration at which inhibition is half-maximal. Turning to `CN(C)c1ccc(NC(=O)N(C[C@H]2CCC[C@H](CN(C(=O)Nc3ccc(N(C)C)cc3)C3CCCCCC3)C2)C2CCCCCC2)cc1` (relative stereo) [Example 61, Trans-1,3-bis[[1-cycloheptyl-3-(4-dimethylaminophenyl)ureido]methyl]cyclohexane], in assay [1], inhibition was half-maximal at 36 nM (IC50). The “Cholesterol lowering effect, % (serum total cholesterol vs control group)” value (from here on “Cholesterol lowering effect, %”) with serum cholesterol [2] (3 mg/kg) is recorded as 48%; with serum cholesterol [2] (10 mg/kg), 82%.

As to `CN(C)c1ccc(NC(=O)N(CC(C)(C)C)C[C@H]2CC[C@H](CN(CC(C)(C)C)C(=O)Nc3ccc(N(C)C)cc3)CC2)cc1` [Example 7, Trans-1,4-bis[[3-(4-dimethylaminophenyl)-1-neopentylureido]methyl]cyclohexane], half-maximal inhibition in assay [1] (IC50) was put at 100 nM. Further, the “Cholesterol lowering effect, %” value amounted to 105% with serum cholesterol [2] (3 mg/kg) and 103% with serum cholesterol [2] (10 mg/kg).

In assay [1], `CN(C)c1ccc(NC(=O)N(C[C@H]2CC[C@H](CN(C(=O)Nc3ccc(N(C)C)cc3)C3CCCC3)CC2)C2CCCC2)cc1` [Example 11, Trans-1,4-bis[[1-cyclopentyl-3-(4-dimethylaminophenyl)ureido]methyl]cyclohexane] gave an IC50 of 47 nM. Further, the “Cholesterol lowering effect, %” value was 108% in the assay on serum cholesterol [2] (3 mg/kg) and 101% with serum cholesterol [2] (10 mg/kg).

For the compound `CN(C)c1ccc(NC(=O)N(C[C@H]2CC[C@H](CN(C(=O)Nc3ccc(N(C)C)cc3)C3CCCCC3)CC2)C2CCCCC2)cc1` [Example 12, Trans-1,4-bis[[1-cyclohexyl-3-(4-dimethylaminophenyl)ureido]methyl]cyclohexane], the IC50 turned out to be 36 nM in assay [3], 24 nM in assay [4], 1.1 nM in assay [5] and 0.74 nM in assay [6]. In addition, the “Cholesterol lowering effect, %” value stood at 96.2% with serum cholesterol [7] (1 mg/kg) and 92.6% in the assay with serum cholesterol [7] (3 mg/kg).

Consider `CN(C)c1ccc(NC(=O)N(C[C@H]2CC[C@H](CN(C(=O)Nc3ccc(N(C)C)cc3)C3CCCCC3)CC2)C2CCCCC2)cc1` [Example 12-1, Trans-1,4-bis[[1-cyclohexyl-3-(4-dimethylaminophenyl)ureido]methyl]cyclohexane], for which the IC50 in assay [3] worked out at 78 nM; in assay [4], 29 nM; in assay [5] it was 1.5 nM; in assay [6], 1.5 nM. Besides, the “Cholesterol lowering effect, %” value with serum cholesterol [7] (1 mg/kg) is on record as 100.4%; in the assay on serum cholesterol [7] (3 mg/kg) it was 108.3%.

Turning to `O=C(Nc1ccc(N2CCCCCC2)cc1)N(C[C@H]1CC[C@H](CN(C(=O)Nc2ccc(N3CCCCCC3)cc2)C2CCCCC2)CC1)C1CCCCC1` [Example 14-2, Trans-1,4-bis[[1-cyclohexyl-3-(4-homopiperidinophenyl)ureido]methyl]cyclohexane], the IC50 in assay [3] came out at 62 nM; in assay [4] it was 52 nM; in assay [5], 0.27 nM; in assay [6] it was 1.6 nM.

Turning to `O=C(Nc1ccc(N2CCOCC2)cc1)N(C[C@H]1CC[C@H](CN(C(=O)Nc2ccc(N3CCOCC3)cc2)C2CCCCC2)CC1)C1CCCCC1` [Example 14-4, Trans-1,4-bis[[1-cyclohexyl-3-(4-morpholinophenyl)ureido]methyl]cyclohexane], the “Cholesterol lowering effect, %” value in the assay with serum cholesterol [7] (1 mg/kg) is on record as 79.9%; with serum cholesterol [7] (3 mg/kg), 98.8%.

In assay [1], `CN(C)c1ccc(NC(=O)N(C[C@H]2CC[C@H](CN(C(=O)Nc3ccc(N(C)C)cc3)C3CCCCCC3)CC2)C2CCCCCC2)cc1` [Example 15, Trans-1,4-bis[[1-cycloheptyl-3-(4-dimethylaminophenyl)ureido]methyl]cyclohexane] gave an IC50 of 38 nM. For the same compound, the “Cholesterol lowering effect, %” value came out at 93% in the assay with serum cholesterol [2] (3 mg/kg) and 99% in the assay on serum cholesterol [2] (10 mg/kg).

As to `CN(C)c1ccc(NC(=O)N(C[C@H]2CC[C@@H](CN(C(=O)Nc3ccc(N(C)C)cc3)C3CCCCC3)CC2)C2CCCCC2)cc1` [Example 42, Cis-1,4-bis[[1-cyclohexyl-3-(4-dimethylaminophenyl)ureido]methyl]cyclohexane], the IC50 in assay [1] is 60 nM. Further, the “Cholesterol lowering effect, %” value is 110% in the assay on serum cholesterol [2] (3 mg/kg) and 102% in the assay with serum cholesterol [2] (10 mg/kg).

On to `CN(C)c1ccc(NC(=O)N(C[C@H]2CC[C@@H](CN(C(=O)Nc3ccc(N(C)C)cc3)C3CCCCCC3)CC2)C2CCCCCC2)cc1` [Example 43, Cis-1,4-bis[[1-cycloheptyl-3-(4-dimethylaminophenyl)ureido]methyl]cyclohexane], for which, in assay [1], the IC50 worked out at 50 nM. Besides, the results for the “Cholesterol lowering effect, %” value in the assay with serum cholesterol [2] (3 mg/kg) and in the assay with serum cholesterol [2] (10 mg/kg) were 88% and 107%, respectively.

For the compound `CN(C)c1ccc(NC(=O)N(C[C@@H]2CCC[C@H](CN(C(=O)Nc3ccc(N(C)C)cc3)C3CCCCCC3)C2)C2CCCCCC2)cc1` [Example 83, Cis-1,3-bis[[1-cycloheptyl-3-(4-dimethylaminophenyl)ureido]methyl]cyclohexane], the IC50 in assay [1] came to 46 nM. Besides, the “Cholesterol lowering effect, %” value in the assay with serum cholesterol [2] (3 mg/kg) amounted to 43%; in the assay with serum cholesterol [2] (10 mg/kg) it was 91%.

With `CN(C)c1ccc(NC(=O)N(Cc2cccc(CN(C(=O)Nc3ccc(N(C)C)cc3)C3CCCCCC3)c2)C2CCCCCC2)cc1` [YM-17E, reference compound], the IC50 in assay [1] is 23 nM; in assay [3], 23 nM; in assay [5] it was 9.6 nM; in assay [6], 14 nM. Moreover, the “Cholesterol lowering effect, %” value in the assay on serum cholesterol [2] (3 mg/kg) is reported as 38%; in the assay with serum cholesterol [2] (10 mg/kg), 91%; in the assay with serum cholesterol [7] (3 mg/kg), 38.0%.
